Assay results: patent US11446301B2, “Quinoline analogs as phosphatidylinositol 3-kinase inhibitors” (NANJING ZHENGXIANG PHARMACEUTICALS CO., LTD., priority 2016, dated 2022)
Like-named read-outs stand apart in the source and are kept apart here.

What was measured:
[1] = PK profiles after iv and PO dosing in rats; assay type: in vivo; conditions: oral dose 10 mg/kg, SD rats, vs idelalisib
Method: Compound 2 was dosed by both iv and PO in the rats.

human hepatocytes = assay: Hepatocyte stability (parent disappearance in cryopreserved hepatocytes); assay type: in vitro ADME
Method: The hepatocyte assay was used to evaluate the metabolic stability of test articles (TA) following incubation in cryopreserved hepatocytes by monitoring parent drug disappearance via […]. The TA with 1% final DMSO concentration was incubated with 0.5 million hepatocytes/ml at 1 μM substrate in duplicate. The incubation was carried out at 37° C. with 5% CO2 and saturating humidity. Samples were taken at 0, 1, 2, and 3 hours to monitor the disappearance of TA and a half-life (t ½) was determined. Table 2 below summarizes the t½ values (e.g. t ½) collected from this Example.

[2] = cited from earlier work
[3] = IV; data from idelalisib NDA filing; cited from earlier work

In the case of C[C@H](Nc1nc(N)nc(N)c1C#N)c1cc2ccc(F)cc2nc1-c1ccccn1 (stereo in doubt) [Compound 2, (S)-2,4-Diamino-6-[1-(7-fluoro-2-pyridin-2-yl-quinolin-3-yl)-ethyla-mino]-pyrimidine-5-carbonitrile], the “Oral exposure corrected with dose (AUCinf/dose) higher than that of idelalisib” value [1] is reported as 20 fold.

With C[C@H](Nc1nc(N)nc(N)c1C#N)c1cc2ccc(F)cc2nc1-c1ccccc1S(C)(=O)=O (stereo in doubt) [Compound 4, (S)-2,4-Diamino-6-{1-[7-fluoro-2-(2-methanesulfonyl-phenyl)-quinoli-n-3-yl]-ethylamino}-pyrimidine-5-carbonitrile] the “improved stability in human hepatocytes (longer half-life) than compound E” value (human hepatocytes; fold vs compound E) was 1.3 ×.

For C[C@H](Nc1nc(N)nc(N)c1C#N)c1cc2ccc(F)cc2nc1-c1ccccc1 [Compound 1, (S)-2,4-diamino-6-[1-(7-fluoro-2-phenyl-quinolin-3-yl)-ethylamino]-pyrimidine-5-carbonitrile], the “improved stability in human hepatocytes (longer half-life) than compound D” value (human hepatocytes; fold vs compound D) was 2.7 ×.

For CC[C@H](Nc1ncnc2[nH]cnc12)c1nc2cccc(F)c2c(=O)n1-c1ccccc1 [Idelalisib, idelalisib], the “Fatal and/or serious hepatotoxicity, patients” value ([2]; idelalisib in combination trials) is given as 11%, the “Fatal and/or serious hepatotoxicity, patients” value ([2]; idelalisib monotherapy) is given as 18% and the “Tmax” value [3] is given as 3.6 min.
